The values that follow come from EPA's ToxValDB 9.5 (doi:10.2903/j.efsa.2010.1598).

≈ marks a conversion by molar mass, not a printed value.

In data set [1] the test system is Apis mellifera. The following applies: acute; dermal; mortality.
For data set [2], the system named is Colinus virginianus. The following applies: acute; oral; mortality.
For data set [3], the system named is Oncorhynchus mykiss. The following applies: chronic/long-term; duration: 21 days; growth.
Data set [4] concerns Tagia sp.
Data set [5] relates to Rattus norvegicus.
Data set [6] relates to Bibionidae. The following applies: chronic/long-term; duration: 28 days.
Data set [7] deals with Daphnia magna. The following applies: chronic/long-term; duration: 21 days; reproduction.
The test system of data set [8] is Ictalurus punctatus. The following applies: acute; duration: 96 hours; mortality.
In data set [9] the test system is Oryctolagus sp. The following applies: developmental; development.
Data set [10] deals with Canidae. As to conditions: acute; oral; Dog Other; mortality.
The subject of data set [11] is Anas platyrhynchos.

As usually defined, the NOAEL is the highest dose or exposure tested at which no adverse effect was seen. For `COC(=O)Nc1nc2ccccc2[nH]1` [Carbendazim], the LD50 in [1] is more than 50 µg/piece; in data set [2], more than 2250 mg/kg-day; in data set [10], more than 5000 mg/kg-day; in [11] (short-term, oral, feed, mortality) it was 615 mg/kg-day. In addition, the NOEC came to 0.0032 mg/L in data set [3]; 1 mg/kg in data set [4] (chronic/long-term, duration: 56 days); 0.0133 mg/L in data set [6]; 0.0015 mg/L in data set [7]. The LC50 in data set [4] (acute, duration: 14 days, mortality) came to 5.4 mg/kg; in [8], 0.019 µg/mL (≈ 0.0994 µM). Also, the NOEL was determined as 22.5 mg/kg-day in data set [5] (chronic, organ weight) and 24.6 mg/kg-day in data set [11] (reproductive). For the same compound, the NOAEL in data set [5] (developmental, development) was determined as 10 mg/kg-day; in data set [9] it was 10 mg/kg-day.
